According to ChEMBL document CHEMBL5537128, “Discovery of LWY713 as a potent and selective FLT3 PROTAC degrader with in vivo activity against acute myeloid leukemia” (Eur J Med Chem, 2024):
Calls of active or inactive are those of the source. The rule behind the calls is not given here.

Columns and labels:
[1] = molecular target: T1, Protein cereblon/Receptor-type tyrosine-protein kinase FLT3 (Homo sapiens, UniProt P36888+Q96SW2); assay: PROTAC activity at CRBN/FLT3 in human MV4-11 cells harboring FLT3-ITD mutation assessed as induction of FLT3 degradation by measuring maximal efficacy incubated for 24 hrs by immunoblotting analysis relative to control; assay type: cell-based
Target sequence in this assay (P36888 27-993 limits assumed): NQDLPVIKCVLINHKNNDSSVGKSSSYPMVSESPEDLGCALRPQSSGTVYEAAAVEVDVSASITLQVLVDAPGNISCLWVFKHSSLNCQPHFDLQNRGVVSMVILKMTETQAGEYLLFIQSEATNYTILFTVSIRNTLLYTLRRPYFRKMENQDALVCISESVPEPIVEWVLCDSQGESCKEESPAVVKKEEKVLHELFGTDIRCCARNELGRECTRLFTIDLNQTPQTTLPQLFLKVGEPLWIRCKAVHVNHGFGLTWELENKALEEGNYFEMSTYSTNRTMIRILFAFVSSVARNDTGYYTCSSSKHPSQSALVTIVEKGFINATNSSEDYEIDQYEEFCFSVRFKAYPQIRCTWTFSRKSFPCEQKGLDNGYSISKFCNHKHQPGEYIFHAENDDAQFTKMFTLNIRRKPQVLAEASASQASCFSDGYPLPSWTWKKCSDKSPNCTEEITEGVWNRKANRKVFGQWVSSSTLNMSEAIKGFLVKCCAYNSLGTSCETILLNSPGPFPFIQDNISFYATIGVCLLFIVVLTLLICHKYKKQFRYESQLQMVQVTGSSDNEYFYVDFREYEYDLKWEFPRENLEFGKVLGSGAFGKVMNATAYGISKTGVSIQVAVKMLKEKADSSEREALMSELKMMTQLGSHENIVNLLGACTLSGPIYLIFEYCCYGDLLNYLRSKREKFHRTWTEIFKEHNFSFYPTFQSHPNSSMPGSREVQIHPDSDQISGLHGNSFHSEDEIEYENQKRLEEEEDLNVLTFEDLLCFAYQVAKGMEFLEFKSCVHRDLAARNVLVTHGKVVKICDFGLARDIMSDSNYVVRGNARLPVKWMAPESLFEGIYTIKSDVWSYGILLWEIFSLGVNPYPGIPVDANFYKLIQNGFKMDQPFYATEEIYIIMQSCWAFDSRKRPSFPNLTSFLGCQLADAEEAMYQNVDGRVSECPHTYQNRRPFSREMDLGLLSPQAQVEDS
Target sequence in this assay (Q96SW2 whole entry partner): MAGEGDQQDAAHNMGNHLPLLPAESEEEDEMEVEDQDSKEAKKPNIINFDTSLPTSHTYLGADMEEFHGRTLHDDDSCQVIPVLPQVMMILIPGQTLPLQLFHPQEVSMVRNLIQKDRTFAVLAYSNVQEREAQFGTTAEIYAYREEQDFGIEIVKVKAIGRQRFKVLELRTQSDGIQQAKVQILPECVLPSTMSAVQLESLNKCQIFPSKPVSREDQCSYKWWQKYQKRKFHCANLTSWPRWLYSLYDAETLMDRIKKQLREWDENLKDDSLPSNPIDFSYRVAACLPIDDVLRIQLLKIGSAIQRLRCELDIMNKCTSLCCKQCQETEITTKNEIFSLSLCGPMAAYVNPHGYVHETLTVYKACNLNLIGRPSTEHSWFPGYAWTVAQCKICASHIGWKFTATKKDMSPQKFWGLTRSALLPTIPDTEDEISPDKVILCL

[2] = molecular target: T1, Protein cereblon/Receptor-type tyrosine-protein kinase FLT3; assay: PROTAC activity at CRBN/FLT3 in human MV4-11 cells harboring FLT3-ITD mutation assessed as induction of FLT3 degradation incubated for 24 hrs by immunoblotting analysis; assay type: cell-based
[3] = molecular target: T1, Protein cereblon/Receptor-type tyrosine-protein kinase FLT3; assay: PROTAC activity at CRBN/FLT3 in human MV4-11 cells harboring FLT3-ITD mutation assessed as induction of FLT3 degradation at 10 nM incubated for 24 hrs by immunoblotting analysis relative to control; assay type: cell-based
Target sequence in this assay (P36888 27-993 limits assumed): as the sequence (P36888 27-993 limits assumed) above
Target sequence in this assay (Q96SW2 whole entry partner): as the sequence (Q96SW2 whole entry partner) above

MV4-11 [4] = assay: Antiproliferative activity against human MV4-11 cells assessed as inhibition of cell proliferation incubated for 72 hrs by CCK8 assay; assay type: functional, cell-based; conditions: MV4-11, 72 h
MV4-11 [5] = assay: Induction of cell cycle arrest at G0/G1 phase in human MV4-11 cells assessed as S phase cells at 0.4 nM incubated for 24 hrs by PI staining based flow cytometric analysis relative to control; assay type: functional
MV4-11 [6] = assay: Induction of cell cycle arrest at G0/G1 phase in human MV4-11 cells assessed as sub-G0/G1 phase cells at 0.4 nM incubated for 24 hrs by PI staining based flow cytometric analysis relative to control; assay type: functional
MV4-11 [7] = assay: Inhibition of PI3K/AKT signaling pathway in human MV4-11 cells assessed as reduction in phosphorylated AKT level at 0.08 to 50 nM incubated for 24 hrs by immunoblotting analysis; assay type: cell-based; conditions: dose 0.08-50 nM
MV4-11 [8] = assay: Induction of apoptosis in human MV4-11 cells assessed as necrotic cells at 10 nM incubated for 48 hrs by Annexin V/7-AAD staining based flow cytometric analysis relative to control; assay type: functional
MV4-11 [9] = assay: Induction of apoptosis in human MV4-11 cells assessed as early apoptotic cells at 2 nM incubated for 48 hrs by Annexin V/7-AAD staining based flow cytometric analysis relative to control; assay type: functional
MV4-11 [10] = assay: Induction of apoptosis in human MV4-11 cells assessed as early apoptotic cells at 10 nM incubated for 48 hrs by Annexin V/7-AAD staining based flow cytometric analysis relative to control; assay type: functional
MV4-11 [11] = assay: Induction of cell cycle arrest at G0/G1 phase in human MV4-11 cells assessed as G0/G1 phase cells at 0.4 nM incubated for 24 hrs by PI staining based flow cytometric analysis relative to control; assay type: functional
MV4-11 [12] = assay: Induction of cell cycle arrest at G0/G1 phase in human MV4-11 cells assessed as sub-G0/G1 phase cells at 2 nM incubated for 24 hrs by PI staining based flow cytometric analysis relative to control; assay type: functional
MV4-11 [13] = assay: Induction of cell cycle arrest at G0/G1 phase in human MV4-11 cells assessed as S phase cells at 2 nM incubated for 24 hrs by PI staining based flow cytometric analysis relative to control; assay type: functional
MV4-11 [14] = assay: Induction of cell cycle arrest at G0/G1 phase in human MV4-11 cells assessed as G2/M phase cells at 0.4 nM incubated for 24 hrs by PI staining based flow cytometric analysis relative to control; assay type: functional
MV4-11 [15] = assay: Antitumor activity against human MV4-11 cells xenografted in NOD/SCID mouse assessed as reduction in tumor volume at 6 mg/kg, po administered once a day for 21 days; assay type: functional, organism-based; conditions: time 21.0 day
MV4-11 [16] = assay: Induction of cell cycle arrest at G0/G1 phase in human MV4-11 cells assessed as G0/G1 phase cells at 2 nM incubated for 24 hrs by PI staining based flow cytometric analysis relative to control; assay type: functional
MV4-11 [17] = assay: Induction of cell cycle arrest at G0/G1 phase in human MV4-11 cells assessed as G2/M phase cells at 2 nM incubated for 24 hrs by PI staining based flow cytometric analysis relative to control; assay type: functional
MV4-11 [18] = assay: Induction of apoptosis in human MV4-11 cells assessed as late apoptotic cells at 10 nM incubated for 48 hrs by Annexin V/7-AAD staining based flow cytometric analysis relative to control; assay type: functional
MV4-11 [19] = assay: Induction of apoptosis in human MV4-11 cells assessed as late apoptotic cells at 2 nM incubated for 48 hrs by Annexin V/7-AAD staining based flow cytometric analysis relative to control; assay type: functional

Work on `CCc1nc(C(N)=O)c(Nc2ccc(N3CCC(N4CCN(C(=O)CNc5cccc6c5C(=O)N(C5CCC(=O)NC5=O)C6=O)CC4)CC3)c(OC)c2)nc1NC1CCOCC1` (configuration not stated) yielded an Emax [1] of 85%, a DC50 [2] of 0.98 nM and an Activity [3] of 60%.

Work on `CCc1nc(C(N)=O)c(Nc2ccc(N3CCC(N4CCN(C(=O)COc5cccc6c5CN(C5CCC(=O)N(C)C5=O)C6=O)CC4)CC3)c(OC)c2)nc1NC1CCOCC1` (configuration not stated) yielded an IC50 (MV4-11 [4]) of 22.9 nM and a DC50 [2] of over 1000 nM.

`CCc1nc(C(N)=O)c(Nc2ccc(N3CCC(N4CCN(C(=O)COc5cccc6c5C(=O)N(C5CCC(=O)NC5=O)C6=O)CC4)CC3)c(OC)c2)nc1NC1CCOCC1` (configuration not stated) showed an Emax [1] of 86.8%, a DC50 [2] of 1.26 nM and an Activity [3] of 58%.

`CCc1nc(C(N)=O)c(Nc2ccc(N3CCC(N4CCN(C(=O)CCCCCNc5cccc6c5C(=O)N(C5CCC(=O)NC5=O)C6=O)CC4)CC3)c(OC)c2)nc1NC1CCOCC1` (configuration not stated) was tested, and the Emax [1] was 77.2%, the DC50 [2] was 2.26 nM and the Activity [3] was 66%.

With `CCc1nc(C(N)=O)c(Nc2ccc(N3CCC(N4CCN(C)CC4)CC3)c(OC)c2)nc1NC1CCOCC1` [GILTERITINIB] the IC50 (MV4-11 [4]) was 6.89 nM, the Activity (MV4-11 [5]) was 10.4% and the Activity (MV4-11 [6]) was 1.6%. For the same compound, the inhibition (MV4-11 [7]) was “inactive”, the Activity (MV4-11 [8]) was 2.3% and the Activity (MV4-11 [9]) was 3%. The Activity (MV4-11 [10]) was 5.5%, the Activity (MV4-11 [11]) was 66.3% and the Activity (MV4-11 [12]) was 1.9%. For the same compound, the Activity (MV4-11 [13]) was 6.9%, the Activity (MV4-11 [14]) was 21.5% and the Activity (MV4-11 [15]) was “Active”. It also gave an Activity (MV4-11 [16]) of 72.4%, an Activity (MV4-11 [17]) of 18.5% and an Activity (MV4-11 [18]) of 19.6%. For the same compound, the Activity (MV4-11 [19]) was 6.8%.
